# Counter-ions that a name gives are not always drawn.
# Assays:
# Format in all cases: biochemical
# human α-thrombin = target: T1, human α-thrombin (Homo sapiens, UniProt P00734); experiment: In vitro inhibition of purified enzymes: thrombin, hydrolysis of N-succinyl-Ala-Ala-Pro-Arg-p-nitroanilide; conditions: 37° C., pH 7.5
# T1 construct: Purified human a-thrombin was diluted into assay buffer; purchased Enzyme Research Laboratories (South Bend)
# Source text: (§1) Reagents: All buffer salts were obtained from Sigma Chemical Company (St. Louis, Mo.), and were of the highest purity available. The enzyme substrates, N-benzoyl-Phe-Val-Arg-p-nitroaniide (Sigma B7632) N-benzoyl-Ile-Glu-Gly-Arg-p-nitroanilide hydrochloride (Sigma B2291), N-p-Tosyl-Gly-Pro-Lys-p-nitroanilide (Sigma T6140), N-succinyl-Ala-Ala-Pro-Phe-p-nitroanilide (Sigma S7388) and N-CBZ-Val-Gly-Arg-p-nitroanilide (Sigma C7271) were obtained from Sigma.
# (§2) Human α-thrombin, human factor Xa and human plasmin were obtained from Enzyme Research Laboratories (South Bend, Id.). Bovine α-chymotrypsin (Sigma C4129), bovine trypsin (Sigma T8642) and human kidney cell urokinase (Sigma U5004) were obtained from Sigma. Human leukocyte elastase was obtained from Elastin Products (Pacific, Mo.).
# Ki Determinations: All assays are based on the ability of the test compound to inhibit the enzyme catalyzed hydrolysis of a peptide p-nitroanilide substrate. […] The final concentrations for each of the substrates is listed below. In general, substrate concentrations are lower than the experimentally determined value for Km. Test compounds are prepared as a 1.0 mg/ml solution in DMSO. Dilutions are prepared in DMSO yielding 8 final concentrations encompassing a 200 fold concentration range. Enzyme solutions are prepared at the concentrations listed below in assay buffer.
# (§3) Reactions were initiated by the addition of a […] aliquot of enzyme and the absorbance increase at 405 nm is recorded for 15 minutes. Data corresponding to less than 10% of the total substrate hydrolysis were used in the calculations. The ratio of the velocity (rate of change in absorbance as a function of time) for a sample containing no test compound is divided by the velocity of a sample containing test compound, and is plotted as a function of test compound concentration. The data are fit to a linear regression, and the value of the slope of the line calculated. The inverse of the slope is the experimentally determined Ki value.
# Thrombin: Thrombin activity was assessed as the ability to hydrolyze the substrate N-succinyl-Ala-Ala-Pro-Arg-p-nitroanilide. […] Final reagent concentrations were: [thrombin]=0.5 nM, [substrate N-succinyl-Ala-Ala-Pro-Arg-p-nitroanilide]=32 mM.
# human factor Xa = target: T2, human factor Xa (Homo sapiens, UniProt P00742); experiment: In vitro inhibition of purified enzymes: Factor X [FXa], hydrolysis of N-benzoyl-Ile-Glu-Gly-Arg-p-nitroanilide; conditions: 37° C., pH 7.5
# T2 construct: purchased Enzyme Research Laboratories (South Bend)
# T2 sequence (P00742 235-488 limits assumed): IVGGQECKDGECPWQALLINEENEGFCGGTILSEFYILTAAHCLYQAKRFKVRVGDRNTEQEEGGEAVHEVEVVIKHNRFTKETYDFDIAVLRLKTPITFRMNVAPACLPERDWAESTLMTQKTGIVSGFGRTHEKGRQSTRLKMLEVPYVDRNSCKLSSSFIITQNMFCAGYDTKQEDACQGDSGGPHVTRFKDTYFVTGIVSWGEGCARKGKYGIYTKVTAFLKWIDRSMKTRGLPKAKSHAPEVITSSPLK
# T2 sequence (P00742 41-179 partner limits assumed): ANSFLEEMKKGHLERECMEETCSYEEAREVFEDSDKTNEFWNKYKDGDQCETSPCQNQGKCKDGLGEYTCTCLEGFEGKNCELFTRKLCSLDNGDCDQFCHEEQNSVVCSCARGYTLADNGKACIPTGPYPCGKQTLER
# Source text: as §1, with “Sigma. N-succinyl-Ala-Ala-Pro-Arg-p-nitroanilide (BACHEM L-1720) and N-succinyl-Ala-Ala-Pro-Val-p-nitroanilide (BACHEM L-1770) were obtained from BACHEM (King of Prussia, Pa.).” for “Sigma.”
# as §2
# (§4) Ki Determinations: All assays are based on the ability of the test compound to inhibit the enzyme catalyzed hydrolysis of a peptide p-nitroanilide substrate. In atypical Ki determination, substrate is prepared in DMSO, and diluted into an assay buffer consisting of 50 mM HEPES, 200 mM NaCl, pH 7.5. The final concentrations for each of the substrates is listed below. In general, substrate concentrations are lower than the experimentally determined value for Km. Test compounds are prepared as a 1.0 mg/ml solution in DMSO. Dilutions are prepared in DMSO yielding 8 final concentrations encompassing a 200 fold concentration range. Enzyme solutions are prepared at the concentrations listed below in assay buffer.
# as §3, with “In a typical Ki determination, into each well of a 96 well plate is pipetted […] of substrate solution, […] of test compound solution, and the plate allowed to thermally equilibrate at 37° C. in a Molecular Devices plate reader for>15 minutes. Reactions” for “Reactions”
# Factor X [FXa]: FXa activity was assessed as the ability to hydrolyze the substrate N-benzoyl-Ile-Glu-Gly-Arg-p-nitroanilide hydrochloride. […] Final DMSO concentration was 4.3%. Purified activated human Factor X was diluted into assay buffer to a concentration of 300 nM. Final reagent concentrations were: [FXa]=10 nM, [N-benzoyl-Ile-Glu-Gly-Arg-p-nitroanilide hydrochloride]=51 mM.
# bovine α-chymotrypsin = target: T3, bovine α-chymotrypsin (Bos taurus, UniProt P00766); experiment: In vitro inhibition of purified enzymes: chymotrypsin, hydrolysis of N-succinyl-Ala-Ala-Pro-Phe-p-nitroanilide
# T3 construct: Bovine α-chymotrypsin (Sigma C4129); purchased Sigma C4129
# Source text: as §1, with “Sigma. N-succinyl-Ala-Ala-Pro-Arg-p-nitroanilide (BACHEM L-1720) and N-succinyl-Ala-Ala-Pro-Val-p-nitroanilide (BACHEM L-1770) were obtained from BACHEM (King of Prussia, Pa.).” for “Sigma.”
# as §2, §4
# as §3, with “In a typical Ki determination, into each well of a 96 well plate is pipetted […] of substrate solution, […] of test compound solution, and the plate allowed to thermally equilibrate at 37° C. in a Molecular Devices plate reader for>15 minutes. Reactions” for “Reactions”
# Chymotrypsin: Chymotrypsin activity was assessed as the ability to hydrolyze N-succinyl-Ala-Ala-Pro-Phe-p-nitroanilide. […] Final DMSO concentration was 4.3%. Purified bovine chymotrypsin was diluted into assay buffer to a concentration of 81 nM. Final reagent concentrations were: [Chymotrypsin]=2.7 nM, [N-succinyl-Ala-Ala-Pro-Phe-p-nitroanilide]=14 mM.
# human leukocyte elastase = target: T4, human leukocyte elastase (Homo sapiens, UniProt P08246); experiment: In vitro inhibition of purified enzymes: elastase, hydrolysis of N-succinyl-Ala-Ala-Pro-Val-p-nitroanilide
# T4 construct: purchased Elastin Products (Pacific, Mo.)
# T4 sequence (P08246 30-247 limits assumed): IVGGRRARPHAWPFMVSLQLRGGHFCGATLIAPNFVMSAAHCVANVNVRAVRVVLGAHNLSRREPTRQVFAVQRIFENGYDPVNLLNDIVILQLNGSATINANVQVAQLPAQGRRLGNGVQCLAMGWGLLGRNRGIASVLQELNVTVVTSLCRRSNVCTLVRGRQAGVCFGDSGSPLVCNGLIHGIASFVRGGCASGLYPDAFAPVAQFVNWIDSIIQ
# Source text: as §1, with “Sigma. N-succinyl-Ala-Ala-Pro-Arg-p-nitroanilide (BACHEM L-1720) and N-succinyl-Ala-Ala-Pro-Val-p-nitroanilide (BACHEM L-1770) were obtained from BACHEM (King of Prussia, Pa.).” for “Sigma.”
# as §2, §4
# as §3, with “In a typical Ki determination, into each well of a 96 well plate is pipetted […] of substrate solution, […] of test compound solution, and the plate allowed to thermally equilibrate at 37° C. in a Molecular Devices plate reader for>15 minutes. Reactions” for “Reactions”
# Elastase: Elastase activity was assessed as the ability to hydrolyze N-succinyl-Ala-Ala-Pro-Val-p-nitroanilide. Substrate solutions were prepared at a concentration of 19 mM (19 mM<<Km=89 mM) in assay buffer. Final DMSO concentration was 4.3%. Purified human leukocyte elastase was diluted into assay buffer to a concentration of 750 nM. Final reagent concentrations were: [Elastase]=25 nM, [N-succinyl-Ala-Ala-Pro-Val-p-nitroanilide]=19 mM.
# human plasmin = target: T5, human plasmin (Homo sapiens, UniProt P00747); experiment: In vitro inhibition of purified enzymes: plasmin, hydrolysis of N-p-Tosyl-Gly-Pro-Lys-p-nitroanilide
# T5 construct: Purified human plasmin was diluted into assay buffer; purchased Enzyme Research Laboratories (South Bend)
# T5 sequence (P00747 581-810 limits assumed): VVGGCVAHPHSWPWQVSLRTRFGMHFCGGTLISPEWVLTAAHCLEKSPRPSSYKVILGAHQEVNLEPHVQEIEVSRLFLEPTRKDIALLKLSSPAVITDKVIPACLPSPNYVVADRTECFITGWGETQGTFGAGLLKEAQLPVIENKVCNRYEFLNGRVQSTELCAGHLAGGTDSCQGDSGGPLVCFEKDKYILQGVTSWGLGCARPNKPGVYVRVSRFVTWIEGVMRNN
# T5 sequence (P00747 97-580 partner limits assumed): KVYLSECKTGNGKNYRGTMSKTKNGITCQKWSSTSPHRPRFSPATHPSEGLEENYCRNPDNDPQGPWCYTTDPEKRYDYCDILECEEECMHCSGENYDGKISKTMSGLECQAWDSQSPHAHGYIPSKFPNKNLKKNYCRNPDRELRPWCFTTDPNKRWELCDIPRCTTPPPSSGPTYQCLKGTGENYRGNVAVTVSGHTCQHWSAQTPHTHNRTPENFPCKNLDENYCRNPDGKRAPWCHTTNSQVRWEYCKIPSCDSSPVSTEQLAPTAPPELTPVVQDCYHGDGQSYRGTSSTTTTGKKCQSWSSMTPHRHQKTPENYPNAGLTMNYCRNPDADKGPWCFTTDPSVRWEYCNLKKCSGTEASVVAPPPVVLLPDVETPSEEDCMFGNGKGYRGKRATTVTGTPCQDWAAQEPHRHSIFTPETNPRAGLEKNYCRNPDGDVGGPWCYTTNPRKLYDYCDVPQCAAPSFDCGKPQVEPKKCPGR
# Source text: as §1, with “Sigma. N-succinyl-Ala-Ala-Pro-Arg-p-nitroanilide (BACHEM L-1720) and N-succinyl-Ala-Ala-Pro-Val-p-nitroanilide (BACHEM L-1770) were obtained from BACHEM (King of Prussia, Pa.).” for “Sigma.”
# as §2, §4
# as §3, with “In a typical Ki determination, into each well of a 96 well plate is pipetted […] of substrate solution, […] of test compound solution, and the plate allowed to thermally equilibrate at 37° C. in a Molecular Devices plate reader for>15 minutes. Reactions” for “Reactions”
# Plasmin: Plasmin activity was assessed as the ability to hydrolyze the N-p-Tosyl-Gly-Pro-Lys-p-nitroanilide. Substrate solutions were prepared at a concentration of 37 mM (37 mM<<Km=243 mM) in assay buffer. Final DMSO concentration was 4.3%. Purified human plasmin was diluted into assay buffer to a concentration of 240 nM. Final reagent concentrations were: [Plasmin]=8 nM, [N-p-Tosyl-Gly-Pro-Lys-p-nitroanilide]=37 mM.
# bovine trypsin = target: T6, bovine trypsin (Bos taurus, UniProt P00760); experiment: In vitro inhibition of purified enzymes: trypsin, hydrolysis of N-benzoyl-Phe-Val-Arg-p-nitroanilide
# T6 construct: Purified bovine trypsin was diluted into assay buffer; purchased Sigma T8642
# T6 sequence (P00760 24-246): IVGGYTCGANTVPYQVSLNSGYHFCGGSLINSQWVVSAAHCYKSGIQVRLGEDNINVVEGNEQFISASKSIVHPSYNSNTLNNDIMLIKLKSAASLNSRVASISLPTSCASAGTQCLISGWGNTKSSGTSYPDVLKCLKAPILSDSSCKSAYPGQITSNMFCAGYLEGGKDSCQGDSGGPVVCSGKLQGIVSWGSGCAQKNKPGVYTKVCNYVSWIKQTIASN
# Source text: as §1, with “Sigma. N-succinyl-Ala-Ala-Pro-Arg-p-nitroanilide (BACHEM L-1720) and N-succinyl-Ala-Ala-Pro-Val-p-nitroanilide (BACHEM L-1770) were obtained from BACHEM (King of Prussia, Pa.).” for “Sigma.”
# as §2, §4
# as §3, with “In a typical Ki determination, into each well of a 96 well plate is pipetted […] of substrate solution, […] of test compound solution, and the plate allowed to thermally equilibrate at 37° C. in a Molecular Devices plate reader for>15 minutes. Reactions” for “Reactions”
# Trypsin: Trypsin activity was assessed as the ability to hydrolyze N-benzoyl-Phe-Val-Arg-p-nitroanilide. […] Final DMSO concentration was 4.3%. Purified bovine trypsin was diluted into assay buffer to a concentration of 120 nM. Final reagent concentrations were: [Trypsin]=4 nM, [N-benzoyl-Phe-Val-Arg-p-nitroanilide]=13 mM.
Ki (human α-thrombin),Ki (human factor Xa),"inhibition at 12 µM (bovine α-chymotrypsin; at 12,000 nM, read-out: % Inhibition Chymo.)","inhibition at 12 µM (human leukocyte elastase; at 12,000 nM)","inhibition at 12 µM (human plasmin; at 12,000 nM)","inhibition at 12 µM (bovine trypsin; at 12,000 nM)","Ki (bovine α-chymotrypsin; 37° C., pH 7.5, read-out: Ki Chymo.)","inhibition at 24.5 µM (human leukocyte elastase; at 24,500 nM)","inhibition at 24.5 µM (human plasmin; at 24,500 nM)","inhibition at 24.5 µM (bovine trypsin; at 24,500 nM)",Structure (SMILES)
580 nM,8.7 µM,0%,0%,0%,0%,,,,,"Cc1ccc(NS(=O)(=O)c2ccccc2[N+](=O)[O-])c(=O)n1CC(=O)NCCONC(=N)N [Example 71, 3-(2-Nitrophenylsulfonyl)amino-6-methyl-1-[(2-guanidinooxyethyl)aminocarbonylmethyl]-2-pyridinone trifluoroacetate]"
7.9 nM,24 µM,,,,,14 µM,0%,0%,0%,"Cc1ccc(NS(=O)(=O)Cc2ccccc2)c(=O)n1CC(=O)NCCONC(=N)N [Example 2, 3-Benzylsulfonylamino-6-methyl-1-[(2-guanidinooxyethyl)aminocarbonylmethyl]-2-pyridinone trifluoroacetate]"
